# Measurements: patent publication EP0231622B1, “Inhibition of the 5-lipoxygenase pathway” (priority 1985, dated 1987)
# Target: T1, 5-Lipoxygenase (Rattus norvegicus, UniProt P12527)
# T1 construct: The activities of these enzymes in extracts of RBL-1 cells were assayed; host or cells: RBL-1 cells, disrupted by nitrogen cavitation; 10,000 x g or 100,000 x g supernatant
# T1 sequence (P12527 1-673): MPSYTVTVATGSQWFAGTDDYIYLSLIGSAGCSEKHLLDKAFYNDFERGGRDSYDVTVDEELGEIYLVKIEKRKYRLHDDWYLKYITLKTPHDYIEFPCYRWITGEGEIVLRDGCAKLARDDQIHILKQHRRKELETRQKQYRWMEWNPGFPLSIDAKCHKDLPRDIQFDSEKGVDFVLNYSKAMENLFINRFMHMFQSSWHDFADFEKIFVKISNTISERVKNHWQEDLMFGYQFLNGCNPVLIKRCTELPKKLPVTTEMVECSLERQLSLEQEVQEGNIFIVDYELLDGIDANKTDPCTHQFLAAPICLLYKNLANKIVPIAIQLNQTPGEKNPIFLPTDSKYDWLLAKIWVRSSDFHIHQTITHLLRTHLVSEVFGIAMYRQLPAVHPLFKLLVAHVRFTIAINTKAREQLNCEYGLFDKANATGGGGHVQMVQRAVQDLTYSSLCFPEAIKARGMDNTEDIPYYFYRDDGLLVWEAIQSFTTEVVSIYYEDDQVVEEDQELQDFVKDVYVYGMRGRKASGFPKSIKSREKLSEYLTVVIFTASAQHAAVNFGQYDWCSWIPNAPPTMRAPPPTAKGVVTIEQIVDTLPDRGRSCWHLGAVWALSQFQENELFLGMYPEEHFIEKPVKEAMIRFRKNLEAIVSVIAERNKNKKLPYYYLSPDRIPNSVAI
# Assay: 5-HETE production by RBL-1 high speed supernatant
# Format: biochemical
# Details: Table 8A; RBL-1 high speed supernatant
# Description: (§1) For in vitro experiments, compounds were dissolved at appropriate concentrations in ethanol or DMSO (dimethylsulfoxide) (final concentration <1.0%) and then diluted to final concentrations using the buffers indicated in the text.
# (§2) The activities of these enzymes in extracts of RBL-1 cells were assayed using the method of Jakschik and Lee, Nature, 287, 51-52 (1980). RBL-1 cells were obtained from the American Type Culture Collection (#CRL 1378) and were grown at 37°C (5% CO₂ in air) in spinner culture in MEM supplemented with 10% heat inactivated fetal calf serum. Harvested cells were washed with 50 mM sodium phosphate buffer, pH 7.0, containing 1 mM EDTA and 0.1% gelatin, resuspended in fresh buffer (5 x 10⁷ cells/ml) and disrupted by nitrogen cavitation using the Parr bomb at 750 psi for 10 min. The broken cell extract was then centrifuged at 10,000 x g for 20 minutes and the supernatant centrifuged at 100,000 x g for 60 minutes. Aliquots (0.25 mls) of the supernatant were preincubated with or without drugs for 10 min, after which 10 ul CaCl₂ (50 mM) was added and the reaction was initiated with 2.5 ul of 2.5 mM arachidonic acid-1-¹⁴C (final concentration was […]; specific activity 20,000 dpm/nmole). After incubation for 3 min at 37°C, the reaction was terminated by addition of 2 volumes (0.5 ml) ice cold acetone and the sample was allowed to deproteinize on ice for 10 min prior to centrifugation at 1,000 x g for 10 min. The deproteinized supernatant was adjusted to pH 3.5 with 2N formic acid and extracted with 2 volumes of ice cold ethyl acetate. The extracted samples were dried under argon, redissolved in ethyl acetate and applied to Whatman LK5D thin layer chromatography (TLC) plates which were developed using the A-9 solvent system [organic phase of ethyl acetate: 2,2,5-trimethylpentane:acetic acid: water (110:50:20:10)] described by Hamberg and Samuelsson, J. Biol. Chem., 241, 257-263 (1966). Arachidonic acid, 5-HETE, di-HETE and PGD₂ were quantified with a Berthold LB 2832 autoscanner.
# (§3) The 5-lipoxygenase and LTA₄ synthetase activities were further studied under the following conditions. An additional centrifugation of the RBL-1 supernatant was run at 100,000 x g for 60 min, to remove the particulate cyclooxygenase activity. Sample incubation was done under conditions similar to those described above, i.e., 2 mM CaCl₂ and 25 uM arachidonic acid-1-¹⁴C, however, with an incubation time of 5 min at […]. Under these conditions, only the 5-lipoxygenase pathway metabolites were detectable. The 5-HETE and di-HETEs were formed at a linear rate, and […] amounts of the arachidonic acid-1-¹⁴C substrate were utilized.
row,Compound,IC50 [µM]
1,"CN(C)c1ccc(-c2nc3n(c2-c2ccc(F)cc2)CCS3)cc1 [Compound 6, 6-(4-N,N-dimethylaminophenyl)-5-(4-fluorophenyl)-2,3-dihydroimidazo[2,1-b]thiazole]",0.8
2,Fc1ccc(-c2c(-c3ccncc3)nc3n2CCS3)cc1 [Compound 12],16
3,FC(F)(F)c1ccc(-c2nc3n(c2-c2ccc(C(F)(F)F)cc2)CCS3)cc1 [Compound 15],10
4,"N#Cc1ccc(-c2nc3n(c2-c2ccc(C#N)cc2)CCS3)cc1 [Compound 13, 5,6-bis(4-cyanophenyl)-2,3-dihydroimidazo[2,1-b]thiazole]",16
5,"Fc1ccc(-c2nc3n(c2-c2ccc(F)cc2)CCC3)cc1 [Compound 8, 2,3-Bis(4-fluorophenyl)-6,7-dihydro-5H-pyrrolo[1,2-a]imidazole]",12
6,"c1cc(-c2nc3n(c2-c2ccncc2)CCS3)ccn1 [Compound 11, 5,6-Bis(4-pyridyl)-2,3-dihydroimidazo(2,1-b)thiazole]",110
7,"CCCNc1ccc(-c2nc3n(c2-c2ccncc2)CCS3)cc1 [Compound 2, 6-(4-(1-Propylamino)phenyl)-5-(4-pyridyl)-2,3-dihydroimidazo[2,1-b]thiazole]",12
8,COc1ccc(-c2nc3n(c2-c2ccc(F)cc2)CCS3)cc1 [Compound 14],2
9,"CCN(CC)c1ccc(-c2nc3n(c2-c2ccc(N(CC)CC)cc2)CCS3)cc1 [Compound 9, 5,6-bis(4-N,N-diethylaminophenyl)-2,3-dihydroimidazo [2,1-b]thiazole]",0.35

# Next, values leading:
row,IC50 [µM],Compound
1,8.6,Fc1ccc(-c2nc3n(c2-c2ccc(F)cc2)CCS3)cc1 [Compound 19]
2,4,COc1ccc(-c2nc3n(c2-c2ccc(OC)cc2)CCC3)cc1 [Compound 22]
3,0.5,"c1cc(-c2c(-c3ccc(N4CCCC4)cc3)nc3n2CCS3)ccn1 [Compound 25, 5-(4-pyridyl)-6-(4-(pyrrolidin-1-yl)phenyl)-2,3-dihydroimidazo[2,1-b]thiazole]"
4,> 10,CSc1ccc(-c2nc3n(c2-c2ccc(SC)cc2)CCS3)cc1 [Compound 32]
5,37,"Fc1ccc(-c2c(-c3ccccn3)nc3n2CCS3)cc1 [Compound 24, 5-(4-fluorophenyl)-6-(2-pyridinyl)-2,3-dihydroimidazo[2,1-b]thiazole]"
6,10,COc1ccc(-c2nc3n(c2-c2ccc(OC)cc2)CCS3(=O)=O)cc1 [Compound 43]
7,1000,"[O-][S+]1CCn2c1nc(-c1ccc(F)cc1)c2-c1ccncc1 (stereo not shown) [Compound 28, 6-(4-fluorophenyl)-5-(4-pyridyl)-2,3-dihydroimadazo-[2,1-b]thiazole-1-oxide]"
8,33,O=S1(=O)CCn2c1nc(-c1ccc(F)cc1)c2-c1ccc(F)cc1 [Compound 31]

# Same assay, conditions: read-out: % inhibition at 10 μM; 10 μM; 5-HETE production, footnotes of Table 8A
row,inhibition at 10 µM [%],Compound
1,35 to 40,CSc1ccc(-c2nc3n(c2-c2ccc(SC)cc2)CCS3)cc1 [Compound 32]

# Target: T2, 5-LO (Rattus norvegicus, UniProt P12527)
# T2 construct: The activities of these enzymes in extracts of RBL-1 cells were assayed; host or cells: RBL-1 cells, disrupted by nitrogen cavitation; 10,000 x g or 100,000 x g supernatant
# T2 sequence (P12527 1-673): T1 sequence (P12527 1-673)
# Assay: di-HETE production by RBL-1 high speed supernatant
# Format: biochemical
# Details: Table 9A; di-HETE production by RBL-1 high speed supernatant; read-out: 5-LO IC50
# Description: as §1, §2, §3
row,Compound,IC50 [µM]
1,"CN(C)c1ccc(-c2nc3n(c2-c2ccc(F)cc2)CCS3)cc1 [Compound 6, 6-(4-N,N-dimethylaminophenyl)-5-(4-fluorophenyl)-2,3-dihydroimidazo[2,1-b]thiazole]",0.6
2,Fc1ccc(-c2c(-c3ccncc3)nc3n2CCS3)cc1 [Compound 12],17
3,FC(F)(F)c1ccc(-c2nc3n(c2-c2ccc(C(F)(F)F)cc2)CCS3)cc1 [Compound 15],10
4,"N#Cc1ccc(-c2nc3n(c2-c2ccc(C#N)cc2)CCS3)cc1 [Compound 13, 5,6-bis(4-cyanophenyl)-2,3-dihydroimidazo[2,1-b]thiazole]",15
5,"Fc1ccc(-c2nc3n(c2-c2ccc(F)cc2)CCC3)cc1 [Compound 8, 2,3-Bis(4-fluorophenyl)-6,7-dihydro-5H-pyrrolo[1,2-a]imidazole]",8
6,"c1cc(-c2nc3n(c2-c2ccncc2)CCS3)ccn1 [Compound 11, 5,6-Bis(4-pyridyl)-2,3-dihydroimidazo(2,1-b)thiazole]",33
7,"CCCNc1ccc(-c2nc3n(c2-c2ccncc2)CCS3)cc1 [Compound 2, 6-(4-(1-Propylamino)phenyl)-5-(4-pyridyl)-2,3-dihydroimidazo[2,1-b]thiazole]",7
8,COc1ccc(-c2nc3n(c2-c2ccc(F)cc2)CCS3)cc1 [Compound 14],0.6
9,"CCN(CC)c1ccc(-c2nc3n(c2-c2ccc(N(CC)CC)cc2)CCS3)cc1 [Compound 9, 5,6-bis(4-N,N-diethylaminophenyl)-2,3-dihydroimidazo [2,1-b]thiazole]",0.16

# Other lines, results leading:
row,IC50 [µM],Compound
1,5,Fc1ccc(-c2nc3n(c2-c2ccc(F)cc2)CCS3)cc1 [Compound 19]
2,0.5,"c1cc(-c2c(-c3ccc(N4CCCC4)cc3)nc3n2CCS3)ccn1 [Compound 25, 5-(4-pyridyl)-6-(4-(pyrrolidin-1-yl)phenyl)-2,3-dihydroimidazo[2,1-b]thiazole]"
3,> 100,CSc1ccc(-c2nc3n(c2-c2ccc(SC)cc2)CCS3)cc1 [Compound 32]
4,20,"Fc1ccc(-c2c(-c3ccccn3)nc3n2CCS3)cc1 [Compound 24, 5-(4-fluorophenyl)-6-(2-pyridinyl)-2,3-dihydroimidazo[2,1-b]thiazole]"
5,10,COc1ccc(-c2nc3n(c2-c2ccc(OC)cc2)CCS3(=O)=O)cc1 [Compound 43]
6,1000,"[O-][S+]1CCn2c1nc(-c1ccc(F)cc1)c2-c1ccncc1 (stereo not shown) [Compound 28, 6-(4-fluorophenyl)-5-(4-pyridyl)-2,3-dihydroimadazo-[2,1-b]thiazole-1-oxide]"
7,< 33,O=S1(=O)CCn2c1nc(-c1ccc(F)cc1)c2-c1ccc(F)cc1 [Compound 31]
